Each block holds one compound with its values, some of them ahead of it. The source made the active and inactive calls. No cut-off for these calls is given here.
How the values were obtained:
[1] = target: Rho GEF 12/Transforming protein RhoA (Homo sapiens) (UniProt P61586+Q9NZN5); experiment: Inhibition of His6-tagged human LARG PH-DH domain expressed in mouse NIH/3T3 cells assessed as reduction in human full length GST-tagged RhoA (1 to 193 residues) interaction with LARG RhoGEF at 100 uM incubated for 1 hr by Western blot analysis relative to Y16; format: cell-based
[2] = target: T1, Rho guanine nucleotide exchange factor 12 (Homo sapiens, UniProt Q9NZN5); experiment: Inhibition of human LARG (765 to 1138 residues) RhoGEF-catalyzed guanine nucleotide-exchange reaction of human full length RhoA (1 to 193 residues) by measuring inhibition of FL-GDP dissociation from RhoA by BODIPY-fluorescein(FL)-GDP nucleotide based assay
[3] = target: T1, Rho guanine nucleotide exchange factor 12; experiment: Inhibition of human LARG (765 to 1138 residues) RhoGEF-catalyzed guanine nucleotide-exchange reaction of human full length RhoA (1 to 193 residues) by measuring inhibition of TR-GTP association to RhoA by BODIPY-Texas Red(TR)-GTP nucleotide based assay
MCF7 [4] = experiment: Inhibition of RhoGEF in human MCF7 cells derived mammospheres assessed as inhibition of 10% calf serum-induced RhoA-GTP formation by measuring relative RhoA-GTP level incubated for 24 hrs by densitometry (reference value: 1); format: cell-based
Mus musculus [5] = species on record: Mus musculus; experiment: Inhibition of RhoGEF in mouse NIH/3T3 cells assessed as inhibition of 10% calf serum-induced RhoA-GTP formation by measuring relative RhoA-GTP level at 10 uM incubated for 24 hrs by densitometry (reference value: 1); format: cell-based
Mus musculus [6] = species on record: Mus musculus; experiment: Inhibition of RhoGEF in mouse NIH/3T3 cells assessed as inhibition of 10% calf serum-induced RhoA-GTP formation by measuring relative RhoA-GTP level at 50 uM incubated for 24 hrs by densitometry (reference value: 1); format: cell-based
MCF7 [7] = experiment: Growth inhibition of human MCF7 cells at 5 to 50 uM; format: functional, cell-based
MCF7 [8] = experiment: Inhibition of RhoGEF in human MCF7 cells derived mammospheres assessed as inhibition of 10% calf serum-induced RhoA-GTP formation by measuring relative RhoA-GTP level at 10 uM incubated for 24 hrs by densitometry (reference value: 1); format: cell-based
MCF7 [9] = experiment: Inhibition of RhoGEF in human MCF7 cells derived mammospheres assessed as inhibition of 10% calf serum-induced RhoA-GTP formation by measuring relative RhoA-GTP level at 5 uM incubated for 24 hrs by densitometry (reference value: 1); format: cell-based
Mus musculus [10] = species on record: Mus musculus; experiment: Inhibition of RhoGEF in mouse NIH/3T3 cells assessed as inhibition of 10% calf serum-induced Cdc42-GTP formation by measuring relative Cdc42-GTP level at 50 uM incubated for 24 hrs by densitometry (reference value: 1); format: cell-based
MCF7 [11] = experiment: Inhibition of RhoGEF in human MCF7 cells derived mammospheres assessed as inhibition of 10% calf serum-induced RhoA-GTP formation at 10 uM incubated for 24 hrs by densitometry relative to control; format: cell-based
MCF7 [12] = experiment: Inhibition of cell invasion of human MCF7 cells at 10 to 50 uM by Matrigel-coated transwell based assay; format: functional
MCF7 [13] = experiment: Inhibition of RhoGEF in human MCF7 cells derived mammospheres assessed as inhibition of RhoA-mediated phospho-MLC formation incubated for 24 hrs by densitometry; format: cell-based
MCF7 [14] = experiment: Inhibition of RhoGEF in human MCF7 cells derived mammospheres assessed as inhibition of RhoA-mediated phospho-MLC formation at 10 uM incubated for 24 hrs by densitometry; format: cell-based
[15] = target: T2, RhoGEF 1/Transforming protein RhoA (Homo sapiens) (UniProt P61586+Q92888); experiment: Binding affinity to human LARG (765 to 1138 residues) DH-PH module expressed in mouse NIH/3T3 cells assessed as reduction in LARG binding to human full length RhoA (1 to 193 residues) by measuring relative LARG binding level at 30 uM pull-down assay (reference value: 1 No unit); format: cell-based
[16] = target: T1, Rho guanine nucleotide exchange factor 12; experiment: Inhibition of human LARG (765 to 1138 residues) RhoGEF binding to human full length RhoA (1 to 193 residues)
Mus musculus [17] = species on record: Mus musculus; experiment: Inhibition of RhoGEF in mouse NIH/3T3 cells assessed as inhibition of 10% calf serum-induced RhoA-GTP formation by measuring relative RhoA-GTP level at 30 uM incubated for 24 hrs by densitometry (reference value: 1); format: cell-based
MCF7 [18] = experiment: Inhibition of RhoGEF in human MCF7 cells derived mammospheres assessed as inhibition of 10% calf serum-induced RhoA-GTP formation by measuring relative RhoA-GTP level at 30 uM incubated for 24 hrs by densitometry (reference value: 1); format: cell-based
[19] = target: T2, RhoGEF 1/Transforming protein RhoA (Homo sapiens); experiment: Binding affinity to human LARG (765 to 1138 residues) DH-PH module expressed in mouse NIH/3T3 cells assessed as reduction in LARG binding to human full length RhoA (1 to 193 residues) by measuring relative LARG binding level at 50 uM pull-down assay (reference value: 1 No unit); format: cell-based
Mus musculus [20] = species on record: Mus musculus; experiment: Inhibition of RhoGEF in mouse NIH/3T3 cells assessed as inhibition of 10% calf serum-induced RhoA-GTP formation by measuring reduction in RhoA-GTP level at 30 uM incubated for 24 hrs by densitometry relative to control; format: cell-based
Mus musculus [21] = species on record: Mus musculus; experiment: Inhibition of RhoGEF in mouse NIH/3T3 cells assessed as inhibition of 10% calf serum-induced Rac1-GTP formation by measuring relative Rac1-GTP level at 50 uM incubated for 24 hrs by densitometry (reference value: 1); format: cell-based
MCF7 [22] = experiment: Inhibition of cell migration of human MCF7 cells at 10 to 50 uM; format: functional, cell-based
[23] = target: T2, RhoGEF 1/Transforming protein RhoA (Homo sapiens); experiment: Binding affinity to human LARG (765 to 1138 residues) DH-PH module expressed in mouse NIH/3T3 cells assessed as reduction in LARG binding to human full length RhoA (1 to 193 residues) by measuring relative LARG binding level at 5 uM pull-down assay (reference value: 1 No unit); format: cell-based
[24] = target: T2, RhoGEF 1/Transforming protein RhoA (Homo sapiens); experiment: Binding affinity to human LARG (765 to 1138 residues) DH-PH module expressed in mouse NIH/3T3 cells assessed as reduction in LARG binding to human full length RhoA (1 to 193 residues) by measuring relative LARG binding level at 10 uM pull-down assay (reference value: 1 No unit); format: cell-based
Mus musculus [25] = species on record: Mus musculus; experiment: Inhibition of RhoGEF in mouse NIH/3T3 cells assessed as reduction in 10% calf serum-induced rhoA-mediated actin stress fiber formation at 10 uM by rhodamine-phalloidin staining based assay; format: cell-based

T1 sequence (Q9NZN5 whole entry, the tested form may be a part): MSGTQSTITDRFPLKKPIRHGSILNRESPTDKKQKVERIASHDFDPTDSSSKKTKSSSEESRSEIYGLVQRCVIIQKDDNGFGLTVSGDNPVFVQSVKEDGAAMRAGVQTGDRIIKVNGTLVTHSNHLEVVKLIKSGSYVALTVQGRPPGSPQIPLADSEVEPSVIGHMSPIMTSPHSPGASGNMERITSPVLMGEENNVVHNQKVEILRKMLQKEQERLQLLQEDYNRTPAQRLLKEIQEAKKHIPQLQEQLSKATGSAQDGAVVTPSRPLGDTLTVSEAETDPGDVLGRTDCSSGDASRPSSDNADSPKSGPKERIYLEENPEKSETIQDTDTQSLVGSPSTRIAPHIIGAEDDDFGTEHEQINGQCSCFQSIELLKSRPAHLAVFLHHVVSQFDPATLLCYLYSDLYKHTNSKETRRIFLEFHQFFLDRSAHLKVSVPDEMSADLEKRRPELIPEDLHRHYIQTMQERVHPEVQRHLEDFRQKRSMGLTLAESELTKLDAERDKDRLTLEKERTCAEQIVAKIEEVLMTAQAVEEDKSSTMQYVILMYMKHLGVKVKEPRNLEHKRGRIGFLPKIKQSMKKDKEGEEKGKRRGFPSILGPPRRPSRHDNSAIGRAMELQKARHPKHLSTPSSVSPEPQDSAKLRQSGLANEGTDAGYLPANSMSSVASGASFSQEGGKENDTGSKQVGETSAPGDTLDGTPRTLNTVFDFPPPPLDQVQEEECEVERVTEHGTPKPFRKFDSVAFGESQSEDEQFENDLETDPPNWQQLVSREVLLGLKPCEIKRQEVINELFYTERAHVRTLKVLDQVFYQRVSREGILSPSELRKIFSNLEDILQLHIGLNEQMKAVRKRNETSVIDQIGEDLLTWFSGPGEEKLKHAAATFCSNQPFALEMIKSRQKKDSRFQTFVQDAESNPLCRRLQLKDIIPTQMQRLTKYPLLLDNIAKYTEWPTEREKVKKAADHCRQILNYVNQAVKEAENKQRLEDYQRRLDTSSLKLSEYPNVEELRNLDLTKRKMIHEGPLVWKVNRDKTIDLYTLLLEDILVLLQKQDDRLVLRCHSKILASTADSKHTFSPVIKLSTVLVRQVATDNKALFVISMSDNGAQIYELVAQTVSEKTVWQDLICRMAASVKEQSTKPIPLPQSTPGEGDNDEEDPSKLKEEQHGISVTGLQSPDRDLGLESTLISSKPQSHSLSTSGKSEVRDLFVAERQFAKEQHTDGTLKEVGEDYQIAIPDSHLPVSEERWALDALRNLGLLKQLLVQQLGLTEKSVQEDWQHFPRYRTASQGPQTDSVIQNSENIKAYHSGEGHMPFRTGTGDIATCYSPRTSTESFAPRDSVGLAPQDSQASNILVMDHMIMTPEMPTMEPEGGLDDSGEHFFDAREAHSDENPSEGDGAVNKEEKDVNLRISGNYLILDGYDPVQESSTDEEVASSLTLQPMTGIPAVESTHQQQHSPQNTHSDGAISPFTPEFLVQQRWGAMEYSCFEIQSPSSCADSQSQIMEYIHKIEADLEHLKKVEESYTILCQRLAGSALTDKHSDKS

SMILES: O=C(O)C1Nc2c(Cl)cc(Cl)cc2C2C=CCC12 (centres undefined)
inhibition [2]: Dose-dependent effect
inhibition [3]: Dose-dependent effect

SMILES: O=C1/C(=C\c2ccccc2OCc2ccccc2)CNN1c1ccc(Br)cc1
inhibition [1]: 7.34%

SMILES: N[C@H](Cc1c[nH]c2ccccc12)C(=O)N/N=C/c1ccc2nccnc2c1
inhibition (MCF7 [4]): Dose-dependent effect
fold change (FC) (Mus musculus [5]): 0.7
fold change (FC) (Mus musculus [6]): 0.19
growth inhibition (GI) (MCF7 [7]): Active
fold change (FC) (MCF7 [8]): 0.65
fold change (FC) (MCF7 [9]): 0.98
fold change (FC) (Mus musculus [10]): 0.96
inhibition (MCF7 [11]): 50%
inhibition (MCF7 [12]): Active
inhibition (MCF7 [13]): Dose-dependent effect
inhibition (MCF7 [14]): 50%
fold change (FC) [15]: 0.45
IC50 [16]: 10 µM
fold change (FC) (Mus musculus [17]): 0.38
fold change (FC) (MCF7 [18]): 0.32
fold change (FC) [19]: 0.15
inhibition (Mus musculus [20]): 80%
fold change (FC) (Mus musculus [21]): 0.89
inhibition (MCF7 [22]): Active
fold change (FC) [23]: 0.92
fold change (FC) [24]: 0.63
inhibition (Mus musculus [25]): Active

Second part, the compound after the results:

inhibition [1]: 13%
SMILES: COc1cc(/C=C2/C(=O)NN(c3ccccc3)C2=O)ccc1O

inhibition [1]: 6.57%
SMILES: O=C1NN(c2ccccc2)C(=O)/C1=C\C1=NCc2ccccc21

inhibition [1]: 13.8%
SMILES: COc1cc(/C=C2/C(=O)NN(c3ccccc3)C2=O)cc(Br)c1OCCOc1ccc(C)cc1

inhibition [1]: 27.1%
SMILES: O=C1NN(c2ccccc2)C(=O)/C1=C/c1ccc(OCc2ccccc2)cc1

— ChEMBL document CHEMBL4419173, “Small-molecule inhibitors targeting g-protein-coupled rho guanine nucleotide exchange factors” (2014)
